# Test results taken from patent US7880007B2, “Bicyclic substituted phenyl piperidine modulators of muscarinic receptors” (Vertex Pharmaceuticals Incorporated, priority 2004, dated 2011).
# Tests used:
# Type in all cases: cell-based
# M1 muscarinic receptor = target: T1, M1 muscarinic receptor (Homo sapiens, UniProt P11229); experiment: Functional mobilization of intracellular calcium (FLIPR), M1-CHO cells; conditions: for Emax: 100% efficacy = maximum response obtained with the Carbachol control; for M1 Activity: M1-CHO cells, calcium mobilization (FLIPR)
# T1 construct: expressed in transfected cells; host or cells: CHO (M1-CHO)
# T1 sequence (P11229 1-460): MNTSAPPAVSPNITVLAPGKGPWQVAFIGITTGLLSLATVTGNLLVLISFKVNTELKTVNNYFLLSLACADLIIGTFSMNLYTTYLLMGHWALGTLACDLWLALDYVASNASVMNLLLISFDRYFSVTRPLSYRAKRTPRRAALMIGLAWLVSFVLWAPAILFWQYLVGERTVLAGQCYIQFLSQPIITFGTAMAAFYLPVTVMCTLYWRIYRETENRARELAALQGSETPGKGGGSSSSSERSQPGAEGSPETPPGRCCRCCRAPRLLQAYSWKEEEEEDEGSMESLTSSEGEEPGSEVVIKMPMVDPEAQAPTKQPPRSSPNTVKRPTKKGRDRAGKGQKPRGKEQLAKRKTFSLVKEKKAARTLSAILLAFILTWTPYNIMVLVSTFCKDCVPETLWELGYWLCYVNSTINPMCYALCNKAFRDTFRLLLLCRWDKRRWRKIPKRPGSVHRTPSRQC
# Outline: (§1)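 FLIPR fluorescence (ex 488, em 540 nm) recorded 60 sec after compound addition to dye-loaded CHO cells. Agonist mode: compound alone. Antagonist mode: 15 min compound pre-incubation, then carbachol at EC80, or co-application. Efficacy expressed as % of maximal carbachol response.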
# M2 muscarinic receptor = target: T2, M2 muscarinic receptor (Homo sapiens, UniProt P08172); experiment: Functional mobilization of intracellular calcium (FLIPR), M2-CHO cells; conditions: for Emax: 100% efficacy = maximum response obtained with the Carbachol control; for M2 Activity: M2-CHO cells, calcium mobilization (FLIPR)
# T2 construct: expressed in transfected cells; host or cells: CHO (M2-CHO)
# T2 sequence (P08172 1-466): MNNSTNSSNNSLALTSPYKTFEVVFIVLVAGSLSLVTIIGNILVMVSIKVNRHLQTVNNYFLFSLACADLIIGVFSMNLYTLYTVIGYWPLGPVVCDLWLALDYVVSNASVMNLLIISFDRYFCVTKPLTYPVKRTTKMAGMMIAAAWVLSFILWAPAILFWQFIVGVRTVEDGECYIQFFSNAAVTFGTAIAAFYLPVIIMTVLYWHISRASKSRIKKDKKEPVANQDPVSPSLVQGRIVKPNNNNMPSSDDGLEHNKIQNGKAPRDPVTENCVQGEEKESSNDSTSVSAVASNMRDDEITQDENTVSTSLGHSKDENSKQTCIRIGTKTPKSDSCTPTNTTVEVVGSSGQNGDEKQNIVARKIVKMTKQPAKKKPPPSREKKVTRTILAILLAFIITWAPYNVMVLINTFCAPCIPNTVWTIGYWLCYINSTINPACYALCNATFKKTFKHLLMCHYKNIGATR
# Outline: as §1
# M3 muscarinic receptor = target: T3, M3 muscarinic receptor (Homo sapiens, UniProt P20309); experiment: Functional mobilization of intracellular calcium (FLIPR), M3-CHO cells; conditions: for Emax: 100% efficacy = maximum response obtained with the Carbachol control; for M3 Activity: M3-CHO cells, calcium mobilization (FLIPR)
# T3 construct: expressed in transfected cells; host or cells: CHO (M3-CHO)
# Outline: as §1
# M4 muscarinic receptor = target: T4, M4 muscarinic receptor (Homo sapiens, UniProt P08173); experiment: Functional mobilization of intracellular calcium (FLIPR), M4-CHO cells; conditions: for Emax: 100% efficacy = maximum response obtained with the Carbachol control; for M4 Activity: M4-CHO cells, calcium mobilization (FLIPR)
# T4 construct: expressed in transfected cells; host or cells: CHO (M4-CHO)
# T4 sequence (P08173 1-479): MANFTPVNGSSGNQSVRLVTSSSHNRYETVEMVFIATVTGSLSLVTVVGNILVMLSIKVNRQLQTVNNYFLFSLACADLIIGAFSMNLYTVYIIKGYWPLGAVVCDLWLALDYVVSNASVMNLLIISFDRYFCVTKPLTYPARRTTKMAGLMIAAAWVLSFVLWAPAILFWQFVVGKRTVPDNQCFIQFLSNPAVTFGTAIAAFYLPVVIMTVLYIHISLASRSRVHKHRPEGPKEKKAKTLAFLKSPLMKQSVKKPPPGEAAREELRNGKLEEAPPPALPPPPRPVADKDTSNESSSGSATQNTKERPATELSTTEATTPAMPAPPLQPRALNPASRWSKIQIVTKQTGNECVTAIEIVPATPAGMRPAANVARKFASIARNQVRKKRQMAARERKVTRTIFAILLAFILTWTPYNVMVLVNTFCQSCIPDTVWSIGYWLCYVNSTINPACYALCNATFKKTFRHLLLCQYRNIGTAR
# Outline: as §1
# T3 sequence (P20309 whole entry): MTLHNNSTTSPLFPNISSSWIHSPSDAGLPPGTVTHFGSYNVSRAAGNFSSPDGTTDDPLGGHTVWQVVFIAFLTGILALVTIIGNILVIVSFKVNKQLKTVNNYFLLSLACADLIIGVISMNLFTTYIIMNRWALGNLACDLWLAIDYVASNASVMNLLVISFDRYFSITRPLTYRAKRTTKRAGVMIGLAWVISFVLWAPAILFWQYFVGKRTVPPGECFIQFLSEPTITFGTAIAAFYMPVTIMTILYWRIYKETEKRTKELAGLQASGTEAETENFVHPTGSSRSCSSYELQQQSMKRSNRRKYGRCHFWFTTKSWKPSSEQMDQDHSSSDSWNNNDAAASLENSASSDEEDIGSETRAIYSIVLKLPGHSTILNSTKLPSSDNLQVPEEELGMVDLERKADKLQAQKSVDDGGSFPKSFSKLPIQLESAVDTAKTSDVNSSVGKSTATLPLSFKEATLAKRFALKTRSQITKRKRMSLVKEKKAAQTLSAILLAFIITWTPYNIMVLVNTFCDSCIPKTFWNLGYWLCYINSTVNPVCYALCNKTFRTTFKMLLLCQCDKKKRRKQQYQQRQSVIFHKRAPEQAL
Structure (SMILES),Emax (M1 muscarinic receptor) [%],Emax (M2 muscarinic receptor) [%],Emax (M3 muscarinic receptor) [%],Emax (M4 muscarinic receptor) [%],M1 Activity (M1 muscarinic receptor),M2 Activity (M2 muscarinic receptor),M3 Activity (M3 muscarinic receptor),M4 Activity (M4 muscarinic receptor)
COc1ccccc1C1CCN(C2CC[C@@H](C)C2)CC1 (stereo partly shown) [Compound 210],25 to 100,< 25,< 25,25 to 100,+ (activity was measured to be greater than 5.0 μM),+ (activity was measured to be greater than 5.0 μM),+ (activity was measured to be greater than 5.0 μM),+++ (activity was measured to be less than 1.0 μM)
CCOC(=O)N1CCC(N2CCC(c3ccccc3OC)CC2)CC1 [Compound 211],25 to 100,25 to 100,25 to 100,> 100,+++ (activity was measured to be less than 1.0 μM),+++ (activity was measured to be less than 1.0 μM),+ (activity was measured to be greater than 5.0 μM),+++ (activity was measured to be less than 1.0 μM)
COc1ccc(Cl)cc1C1(F)CCN(C[C@H]2C[C@H]3C=C[C@H]2C3)CC1 [Compound 213],25 to 100,25 to 100,< 25,25 to 100,+ (activity was measured to be greater than 5.0 μM),++ (activity was measured to be from 1.0 μM to 5.0 μM),+ (activity was measured to be greater than 5.0 μM),+++ (activity was measured to be less than 1.0 μM)
CCOC(=O)N1C2CCC1CC(N1CCC(c3cc(-c4ccc(S(=O)(=O)N5CCCC5)cc4)ccc3OC)CC1)C2 (stereo not shown) [Compound 215],25 to 100,< 25,< 25,< 25,+ (activity was measured to be greater than 5.0 μM),+ (activity was measured to be greater than 5.0 μM),+ (activity was measured to be greater than 5.0 μM),+ (activity was measured to be greater than 5.0 μM)
CCOC(=O)N1CCC(CN2CCC(c3cccc4c3OCO4)CC2)CC1 [Compound 217],25 to 100,< 25,< 25,25 to 100,+++ (activity was measured to be less than 1.0 μM),+ (activity was measured to be greater than 5.0 μM),++ (activity was measured to be from 1.0 μM to 5.0 μM),+++ (activity was measured to be less than 1.0 μM)

# Second part, led by results:
Emax (M1 muscarinic receptor) [%],Emax (M2 muscarinic receptor) [%],Emax (M3 muscarinic receptor) [%],Emax (M4 muscarinic receptor) [%],Structure (SMILES),M1 Activity (M1 muscarinic receptor),M2 Activity (M2 muscarinic receptor),M3 Activity (M3 muscarinic receptor),M4 Activity (M4 muscarinic receptor)
25 to 100,< 25,< 25,25 to 100,Cc1ccc(F)cc1C1CCN([C@H]2C[C@H]3CC[C@H]2C3)CC1 [Compound 212],+ (activity was measured to be greater than 5.0 μM),+ (activity was measured to be greater than 5.0 μM),+ (activity was measured to be greater than 5.0 μM),+++ (activity was measured to be less than 1.0 μM)
25 to 100,< 25,< 25,25 to 100,COc1ccc(-c2ccc(S(=O)(=O)C(C)C)cc2)cc1C1CCN([C@H]2C[C@H]3CC[C@H]2C3)CC1 [Compound 214],+ (activity was measured to be greater than 5.0 μM),+ (activity was measured to be greater than 5.0 μM),+ (activity was measured to be greater than 5.0 μM),++ (activity was measured to be from 1.0 μM to 5.0 μM)
< 25,< 25,< 25,25 to 100,COc1ccc(-c2ccccc2F)cc1C1CCN([C@H]2C[C@H]3CC[C@H]2C3)CC1 [Compound 216],+ (activity was measured to be greater than 5.0 μM),+ (activity was measured to be greater than 5.0 μM),+ (activity was measured to be greater than 5.0 μM),+ (activity was measured to be greater than 5.0 μM)
